# Test results as given in US8846570B2, “Herbicidal compositions comprising 4-amino-3-chloro-5-fluoro-6-(4-chloro-2-fluoro-3-methoxyphenyl)pyridine-2-carboxylic acid or a derivative thereof and microtubule inhibiting herbicides” (Dow AgroSciences LLC, priority 2012, dated 2014).
# Tests used:
# Assay in all cases: In-water applied, transplanted paddy rice, greenhouse: visual weed control
# Type in all cases: in vivo
# [1] = system: Schoenoplectus Maritimes (L.) Lye (SCPMA); settings: 21 DAA
# Procedure: (§1) Weed seeds or nutlets of the desired test plant species were planted in puddled soil (mud) prepared by mixing a shredded, non-sterilized mineral soil (50.5 percent silt, 25.5 percent clay, and 24 percent sand, with a pH of about 7.6 and an organic matter content of about 2.9 percent) and water at a 1:1 volumetric ratio. The prepared mud was dispensed in 365 mL aliquots into 16-ounce (oz.) non-perforated plastic pots with a surface area of 86.59 square centimeters (cm^2) leaving a headspace of 3 centimeters (cm) in each pot. Mud was allowed to dry overnight prior to planting or transplanting. Rice seeds were planted in Sun Gro MetroMix® 306 planting mixture, which typically has a pH of 6.0 to 6.8 and an organic matter content of about 30 percent, in plastic plug trays. Seedlings at the second or third leaf stage of growth were transplanted into 860 mL of mud contained in 32-oz. non-perforated plastic pots with a surface area of 86.59 cm^2 4 days prior to herbicide application. The paddy was created by filling the headspace of the pots with 2.5 to 3 cm of water. When required to ensure good germination and healthy plants, a fungicide treatment and/or other chemical or physical treatment was applied. The plants were grown for 4-22 days in a greenhouse with an approximate 14 h photoperiod which was maintained at about 29° C. during the day and 26° C. during the night. Nutrients were added as Osmocote® (19:6:12, N:P:K+minor nutrients) at 2 g per 16.-oz. pot and 4 g per 32-oz. pot. Water was added on a regular basis to maintain the paddy flood, and supplemental lighting was provided with overhead metal halide 1000-Watt lamps as necessary. The plants were employed for testing when they reached the first through fourth true leaf stage.
# (§2) Treatments consisted of the acid or esters of 4-amino-3-chloro-5-fluoro-6-(4-chloro-2-fluoro-3-methoxy-phenyl)pyridine-2-carboxylic acid (compound A) each formulated as an SC and various herbicidal components alone and in combination. Forms of compound A were applied on an acid equivalent basis.
# (§3) Treatment requirements for each compound or herbicidal component were calculated based upon the rates being tested, the concentration of active ingredient or acid equivalent in the formulation, an application volume of 2 mL per component per pot, and an application area of 86.59 cm^2 per pot.
# (§4) For formulated compounds, a measured amount was placed in an individual 100 or 200 mL glass vial and was dissolved in a volume of 1.25% (v/v) Agri-Dex® crop oil concentrate to obtain application solutions.
# (§5) For technical grade compounds, a weighed amount was placed in an individual 100 to 200 mL glass vial and was dissolved in a volume of acetone to obtain concentrated stock solutions. […] The concentrated stock solutions obtained were diluted with an equivalent volume of an aqueous mixture containing 2.5% (v/v) crop oil concentrate so that the final application solutions contained 1.25% (v/v) crop oil concentrate.
# (§6) Applications were made by injecting, with a pipetter, appropriate amounts of the application solutions into the aqueous layer of the paddy. Control plants were treated in the same manner with the solvent blank. Applications were made so that all treated plant material received the same concentrations of acetone and crop oil concentrate.
# (§7) The treated plants and control plants were placed in a greenhouse as described above and water was added as needed to maintain a paddy flood. After approximately 3 weeks the condition of the test plants as compared with that of the untreated plants was determined visually and scored on a scale of 0 to 100 percent where 0 corresponds to no injury or growth inhibition and 100 corresponds to complete kill.
# (§8) Colby's equation was used to determine the herbicidal effects expected from the mixtures (Colby, S. R. 1967. Calculation of the synergistic and antagonistic response of herbicide combinations. Weeds 15:20-22.). […]
# [2] = system: Echinochloa oryzoides (Ard.) Fritsch (ECHOR); settings: 21 DAA
# Procedure: as §1, §2, §3, §4, §5, §6, §7, §8
# [3] = system: Cyperus rotundus L. (CYPRO)
# Procedure: as §1, with “When required to ensure good germination and healthy plants, a fungicide treatment and/or other chemical or physical treatment was applied. The plants were grown for 4-22 days in a greenhouse with an approximate 14 h photoperiod which was maintained at about 29° C. during the day and 26° C. during the night.” left out
# Forms of compound A were applied on an acid equivalent basis.
# as §4, §5, §6, §7
# Colby's equation was used to determine the herbicidal effects expected from the mixtures (Colby, S. R. 1967. Calculation of the synergistic and antagonistic response of herbicide combinations. Weeds 15:20-22.).
# The following equation was used to calculate the expected activity of mixtures containing two active ingredients, A and B: Expected=A+B−(A×B/100)
# [4] = system: Echinochloa crus-galli (L.) Beauv. (ECHCG); settings: 21 DAA
# Procedure: as §1, §2, §3, §4, §5, §6, §7, §8
# [5] = system: Leptochloa chinensis (L.) Nees (LEFCH); settings: 21 DAA
# Procedure: as §1, §2, §3, §4, §5, §6, §7, §8
smiles,measurement,setting,value
"CSC(=O)c1c(C(F)F)nc(C(F)(F)F)c(C(=O)SC)c1CC(C)C [Dithiopyr, S,S′-dimethyl-2-(difluoromethyl)-4-(2-methylpropyl)-6-(trifluoromethyl)-3,5-pyridinedicarbothioate]",Visual Weed Control (%) Obs,[1]; 70 g ai/ha,0%
same,Visual Weed Control (%) Obs,[2]; 70 g ai/ha,30%
"COc1c(Cl)ccc(-c2nc(C(=O)OCc3ccccc3)c(Cl)c(N)c2F)c1F [Compound A Benzyl Ester, benzyl ester of 4-amino-3-chloro-5-fluoro-6-(4-chloro-2-fluoro-3-methoxy-phenyl)pyridine-2-carboxylic acid]",Visual Weed Control (%) Obs,"[3]; 20 DAA, 4.38 g ae/ha",50%
same,Visual Weed Control (%) Obs,"[3]; 20 DAA, 8.75 g ae/ha",0%
same,Visual Weed Control (%) Obs,"[3]; 20 DAA, 17.5 g ae/ha",90%
same,Visual Weed Control (%) Obs,"[3]; 21 DAA, 8.75 g ae/ha",0%
same,Visual Weed Control (%) Obs,"[3]; 21 DAA, 17.5 g ae/ha",0%
same,Visual Weed Control (%) Obs,[1]; 4.38 g ae/ha,0%
same,Visual Weed Control (%) Obs,[1]; 8.75 g ae/ha,0%
same,Visual Weed Control (%) Obs,[1]; 17.5 g ae/ha,0%
same,Visual Weed Control (%) Obs,[2]; 4.38 g ae/ha,40%
same,Visual Weed Control (%) Obs,[2]; 8.75 g ae/ha,60%
same,Visual Weed Control (%) Obs,[2]; 17.5 g ae/ha,75%
same,Visual Weed Control (%) Obs,[4]; 4.38 g ae/ha,0%
same,Visual Weed Control (%) Obs,[4]; 8.75 g ae/ha,0%
same,Visual Weed Control (%) Obs,[4]; 17.5 g ae/ha,25%
same,Visual Weed Control (%) Obs,[5]; 35 g ae/ha,50%
same,Visual Weed Control (%) Obs,[5]; 70 g ae/ha,50%
"CCC(CC)Nc1c([N+](=O)[O-])cc(C)c(C)c1[N+](=O)[O-] [Pendimethalin, N-(1-ethylpropyl)-3,4-dimethyl-2,6-dinitrobenzenamine, reference compound]",Visual Weed Control (%) Obs,"[3]; 21 DAA, 280 g ai/ha",0%
same,Visual Weed Control (%) Obs,"[3]; 21 DAA, 560 g ai/ha",0%
same,Visual Weed Control (%) Obs,[1]; 560 g ai/ha,0%
same,Visual Weed Control (%) Obs,[4]; 280 g ai/ha,20%
same,Visual Weed Control (%) Obs,[4]; 560 g ai/ha,0%
same,Visual Weed Control (%) Obs,[5]; 280 g ai/ha,40%
same,Visual Weed Control (%) Obs,[5]; 1120 g ai/ha,48%
"COc1c(Cl)ccc(-c2nc(C(=O)O)c(Cl)c(N)c2F)c1F [Compound A Acid, 4-amino-3-chloro-6-(4-chloro-2-fluoro-3-methoxyphenyl)-5-fluoropyridine-2-carboxylic acid]",Visual Weed Control (%) Obs,"[3]; 20 DAA, 10.6 g ae/ha",10%
same,Visual Weed Control (%) Obs,"[3]; 20 DAA, 21.2 g ae/ha",20%
same,Visual Weed Control (%) Obs,[1]; 8.75 g ae/ha,0%
same,Visual Weed Control (%) Obs,[1]; 17.5 g ae/ha,0%
same,Visual Weed Control (%) Obs,[1]; 35 g ae/ha,0%
same,Visual Weed Control (%) Obs,[2]; 8.75 g ae/ha,10%
same,Visual Weed Control (%) Obs,[2]; 17.5 g ae/ha,40%
same,Visual Weed Control (%) Obs,[2]; 35 g ae/ha,40%
same,Visual Weed Control (%) Obs,[4]; 8.75 g ae/ha,0%
same,Visual Weed Control (%) Obs,[4]; 17.5 g ae/ha,0%
same,Visual Weed Control (%) Obs,[4]; 35 g ae/ha,20%
same,Visual Weed Control (%) Obs,[5]; 8.75 g ae/ha,0%
same,Visual Weed Control (%) Obs,[5]; 17.5 g ae/ha,0%
same,Visual Weed Control (%) Obs,[5]; 35 g ae/ha,30%
